Data on 2 compounds can be found in publication doi:10.1101/2023.05.15.540887, “Comparative analysis of drug-like EP300/CREBBP acetyltransferase inhibitors” (bioRxiv, 2023).

The target in series [1] is T1, EP300 catalytic domain (Homo sapiens, UniProt Q09472).
T1 construct: disrupt the activity of EP300 catalytic domain; purchased Enzo BML-SE451-0100
T1 sequence (Q09472 1287-1663 limits assumed): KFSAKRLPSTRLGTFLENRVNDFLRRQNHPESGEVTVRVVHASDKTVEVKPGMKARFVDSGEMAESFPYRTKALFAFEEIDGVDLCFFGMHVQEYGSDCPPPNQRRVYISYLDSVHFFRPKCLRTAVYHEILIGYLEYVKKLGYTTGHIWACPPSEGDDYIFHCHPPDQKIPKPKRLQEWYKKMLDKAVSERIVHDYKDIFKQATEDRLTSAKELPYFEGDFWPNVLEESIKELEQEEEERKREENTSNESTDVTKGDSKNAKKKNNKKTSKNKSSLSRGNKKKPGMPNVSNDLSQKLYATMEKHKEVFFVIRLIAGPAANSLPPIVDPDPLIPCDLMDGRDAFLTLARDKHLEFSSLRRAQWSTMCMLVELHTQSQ
The series is described as follows: TR-FRET assay of EP300-catalyzed acetylation of a histone H3 peptide. The series is classed as biochemical. As to conditions: 50 nM H3 peptide and 200 μM acetyl-CoA. How it is done: Reaction mixtures were incubated for 1 h prior to addition of Alexa Fluor 647-labeled anti-H3K9Ac antibody and Europium-labeled streptavidin.
Briefly, an enzyme mix was made consisting of EP300 (100 nM; Enzo BML-SE451-0100) in assay buffer (25 mM HEPES pH 7.5, 150 mM NaCl, 2 mM DTT, 0.0001% Tween-20, 0.1 mg/m acetylated bovine serum albumin). This enzyme mix (3 μL) was added to white solid-bottom 1536-well plates (Greiner 789175) using a BioRaptr 2.0 Flying Reagent Dispenser (Let’s Go Robotics). […] Plates were read using a PHERAstar FSX microplate reader with HTRF optical module (BMG LabTech) and normalized to no enzyme (negative) and DMSO (neutral) controls. Standard curves were generated through titration of peptide substrate and acetylated peptide [Lys(Ac)9]-Histone H3 (1-21; AnaSpec AS-64191) to benchmark activity. […] Replicate activity measurements in the presence of inhibitors were averaged and half-maximal inhibition values calculated from the nonlinear fit of dose-response data using GraphPad Prism 9.

Series [2] in a line: HPLC analysis of photocaged inhibitor release (photodeprotection). The series is classed as physicochemical. The settings on record: 302 nm or 365 nm light, aqueous solution or buffer. The source says:
One potential reason EP300/CREBBP acetyltransferase inhibitors are not actively being evaluated in clinical trials is on-target toxicity.[10] Thus, these molecules may benefit from strategies to direct them more specifically to malignant – as opposed to healthy – tissues. Light-activated drug release provides one potential approach.[38] […] Considering the studies above we wondered: could the high potency of the CPI-1612 scaffold enable conditional release of an active EP300/CREBBP inhibitor? To explore this, we prepared a photocaged CPI-1612 analogue (4) (Fig. 5a). […] Parent inhibitor 5 was synthesized based on the published route[40] and derivatized with nitrobenzyl chloroformate to produce the photocaged analogue 4 (Scheme S1). […] Cells were then incubated for 3 h, harvested, and assessed for changes in EP300/CREBBP-dependent H3K18Ac. […]
To assess the ability of 4 to undergo photodeprotection to form 5 in the presence of UV light, we analyzed model reactions by HPLC. […] To assess conversion of 4 to 5, irradiated reactions and controls were analyzed using an Agilent 1260 Infinity HPLC equipped with a Phenomenenex Kinetex C18 column (2.6 μm, 100 Angstrom, 100 × 4.6 mm inner diameter, H20-280322) and UV detector with monitoring at 280 nm. […]

Series [3] deals with EP300/CREBBP-dependent H3K18Ac in MCF-7 cells. The series is described as follows: Cellular photouncaging, H3K18Ac Western blot in MCF-7 cells. It counts as cell-based, human. The settings on record: MCF-7, 10 or 25 μM. The text has this:
One potential reason EP300/CREBBP acetyltransferase inhibitors are not actively being evaluated in clinical trials is on-target toxicity.[10] Thus, these molecules may benefit from strategies to direct them more specifically to malignant – as opposed to healthy – tissues. Light-activated drug release provides one potential approach.[38] […] Considering the studies above we wondered: could the high potency of the CPI-1612 scaffold enable conditional release of an active EP300/CREBBP inhibitor? To explore this, we prepared a photocaged CPI-1612 analogue (4) (Fig. 5a). […] Parent inhibitor 5 was synthesized based on the published route[40] and derivatized with nitrobenzyl chloroformate to produce the photocaged analogue 4 (Scheme S1). […] To test whether active EP300/CREBBP inhibitor release could be controlled by light, we incubated cells with […] (10 or 25 μM), washed to remove inhibitor in media, and irradiated them for 1 min at 302 nm (Fig. 5e). Cells were then incubated for 3 h, harvested, and assessed for changes in EP300/CREBBP-dependent H3K18Ac. […] Although beyond the scope of the current study, we envision targeted release of potent EP300/CREBBP inhibitors could find utility in malignancies already treated using phototherapy, such as head and neck cancers,[41] as well as valuable applications in basic science.[42] […]
In general terms: Immunoblotting shows a protein as a band on a membrane.

Details of series [4]: method as in ref 40 = [40]; 40. Wilson J. E.; Brucelle F.; Levelle J. R. P300/CBP HAT inhibitors . WO2019161162A1 , 2019 . The settings on record: patent literature; cited from earlier work.

Structures are written as SMILES.

As for `COc1cc(COC(=O)N(C[C@@H](C)c2ccc(C#N)cc2)C(C(=O)Nc2ccc(-c3cnn(CC(=O)N4CCCC4)c3)cn2)c2ccccc2)c([N+](=O)[O-])cc1OC` (some centres unmarked) [Compound 4], the “decrease in EP300/CREBBP inhibitor potency of caged relative to uncaged analogue 5” value in series [1] is ~ 50 fold. The “photodeprotection to 5 (HPLC reaction monitoring)” value in series [2] is reported as “facile conversion of 4 to 5”. Also, the “change in H3K18Ac, treated and exposed to light (UV)” value in series [3] (302 nm 1 min, then 3 h) was “clear decreases in H3K18Ac”. The “change in H3K18Ac, treated only (no irradiation)” value in series [3] (no UV) is given as “no such effect”.

Turning to `C[C@H](CNC(C(=O)Nc1ccc(-c2cnn(CC(=O)N3CCCC3)c2)cn1)c1ccccc1)c1ccc(C#N)cc1` (some centres unmarked) [Compound 5], the “in vivo antitumor activity” value in series [4] is “potent in vivo antitumor activity”.
